Laboratory results from PMC9481570, “A small molecule antagonist of SMN disrupts the interaction between SMN and RNAP II” (Nature Communications, 2022).
Several values for one entry are separate records, joined by “and”; a condition that tells them apart may be missing. Equal values may be shown once.

Columns and labels:
Test in all cases: Affinity-purification and mass spectrometry (AP-MS) chemical proteomics, all proteins;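 as to Difference: 200 µM free competitor with 20 µM biotin probe overnight in lysate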
Format in all cases: binding
[1] = target: T1, proteins displaced from immobilized biotin-Cmpd 1 pulldowns (U2OS cell lysate) (Homo sapiens, UniProt P07339); details: GN=CTSD (P07339)
T1 construct: endogenous in cells; host or cells: U2OS
T1 sequence (P07339 65-412): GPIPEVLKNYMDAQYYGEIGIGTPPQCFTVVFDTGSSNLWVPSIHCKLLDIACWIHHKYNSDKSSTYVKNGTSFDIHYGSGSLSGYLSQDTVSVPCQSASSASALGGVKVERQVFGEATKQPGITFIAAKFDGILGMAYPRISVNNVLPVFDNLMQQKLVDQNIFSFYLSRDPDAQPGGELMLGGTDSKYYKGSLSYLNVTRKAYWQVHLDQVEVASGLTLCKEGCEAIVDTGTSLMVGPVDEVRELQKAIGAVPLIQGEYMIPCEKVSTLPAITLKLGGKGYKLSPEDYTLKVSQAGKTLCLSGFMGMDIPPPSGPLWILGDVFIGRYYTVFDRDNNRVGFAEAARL
Protocol: (§1) The samples for AP-MS were prepared following pulldown procedure as previously described with minor modifications. Briefly, U2OS cells were lysed in RIPA buffer and the cell lysate was equally divided into two groups: (1) DMSO group (control group): the cell lysate was incubated with 20 μM biotin-labeled compound 1; (2) Cpmd 1 group (sample group): the cell lysate was incubated with 20 μM biotin-labeled compound 1 and 200 μM free compound 1. Each group contains three biological replicates. They were incubated overnight at 4 °C, then 30 μL streptavidin beads (Thermo Fisher, 20353) was added and incubated at 4 °C for 1 h. The beads were then washed with RIPA buffer for 3 times, 10 min/time.
(§2) Beads were rinsed twice with 50 mM TEAB, pH 7.55, before eluting proteins with 25 μL of 5% SDS, 50 mM TEAB, pH 7.55. The sample was then centrifuged at 17,000 × g for 10 min to remove any debris. Proteins were reduced with 20 mM TCEP (Thermo Fisher, 77720) and incubated at 65 °C for 30 min. The sample was cooled to room temperature and 1 μL of 0.5 M iodoacetamide acid was added and allowed to react for 20 min in dark. Phosphoric acid (12%, 2.75 μL) was added to the protein solution, followed by adding 165 μL of binding buffer (90% methanol, 100 mM TEAB, pH 7.1). The resulting solution was added to S-Trap spin column (protifi.com) and passed through the column using a bench top centrifuge (30 s spin at 4000 × g). The spin column was washed with 400 μL of binding buffer and centrifuged. This step was repeated two more times. Then trypsin was added to the protein mixture at a mass ratio of 1:25 in 50 mM TEAB, pH 8.0, and the sample was incubated at 37 °C for 4 h. Peptides were eluted with 80 μL of 50 mM TEAB, followed by 80 μL of 0.2% formic acid, and finally 80 μL of 50% acetonitrile, 0.2% formic acid. The combined peptide solution was then dried in a speed vac and resuspended in 2% acetonitrile, 0.1% formic acid, 97.9% water and placed in an autosampler vial.
(§3) Samples were analyzed by nanoLC-MS/MS (nanoRSLC, Thermo Fisher) using an Aurora series (Ion Opticks) reversed phase HPLC column (25 cm length × 75 µm inner diameter) and directly injected to an Orbitrap Eclipse (Thermo Fisher) using a 120 min gradient (mobile phase A = 0.1% formic acid, mobile phase B = 99.9% acetonitrile with 0.1% formic acid; hold 2% B for 5 min, 2–6% B in 0.1 min, 6–25% in 100 min, 25–50% in 15 min) at a flow rate of 350 nL/min. Eluted peptide ions were analyzed using a data-dependent acquisition (DDA) method with resolution settings of 120,000 and 15,000 (at m/z 200) for MS1 and MS2 scans, respectively. DDA-selected peptides were fragmented using stepped high energy collisional dissociation (27, 32, and 37%).
(§4) The data of AP-MS were analyzed as a previously described method with minor modifications. Briefly, the raw MS files were searched with MaxQuant software (version 1.6.1.1, www.maxquant.org)[56] against the UniProt human protein database (www.uniprot.org) concatenated with common contaminants and the decoy database. The mass tolerance for precursor ions was set to 20 ppm and 4.5 ppm for the first and main search, respectively. The cysteine carbamidomethylation was set as fixed modification and methionine oxidation and N-terminal acetylation as variable modifications. Enzyme specificity was set to trypsin and a maximum missed cleavage was set as 2. The 1% false discovery rate (FDR) at both peptide and protein levels was applied for the analysis. Relative protein quantification was based on the label-free quantification incorporated in the MaxQuant software. The iBAQ intensity of proteins was obtained for the control and experimental samples. The missing iBAQ intensity was replaced by a random number, which was calculated from a normal distribution with a width of 0.3 and a downshift of 1.8 defined by Perseus software (version 1.6.5.0). The P-value was calculated by performing two-sample Student’s t-test. […]

[2] = target: T2, proteins displaced from immobilized biotin-Cmpd 1 pulldowns (U2OS cell lysate) (Homo sapiens, UniProt P35606); details: GN=COPB2 (P35606)
T2 construct: endogenous in cells; host or cells: U2OS
T2 sequence (P35606 whole entry): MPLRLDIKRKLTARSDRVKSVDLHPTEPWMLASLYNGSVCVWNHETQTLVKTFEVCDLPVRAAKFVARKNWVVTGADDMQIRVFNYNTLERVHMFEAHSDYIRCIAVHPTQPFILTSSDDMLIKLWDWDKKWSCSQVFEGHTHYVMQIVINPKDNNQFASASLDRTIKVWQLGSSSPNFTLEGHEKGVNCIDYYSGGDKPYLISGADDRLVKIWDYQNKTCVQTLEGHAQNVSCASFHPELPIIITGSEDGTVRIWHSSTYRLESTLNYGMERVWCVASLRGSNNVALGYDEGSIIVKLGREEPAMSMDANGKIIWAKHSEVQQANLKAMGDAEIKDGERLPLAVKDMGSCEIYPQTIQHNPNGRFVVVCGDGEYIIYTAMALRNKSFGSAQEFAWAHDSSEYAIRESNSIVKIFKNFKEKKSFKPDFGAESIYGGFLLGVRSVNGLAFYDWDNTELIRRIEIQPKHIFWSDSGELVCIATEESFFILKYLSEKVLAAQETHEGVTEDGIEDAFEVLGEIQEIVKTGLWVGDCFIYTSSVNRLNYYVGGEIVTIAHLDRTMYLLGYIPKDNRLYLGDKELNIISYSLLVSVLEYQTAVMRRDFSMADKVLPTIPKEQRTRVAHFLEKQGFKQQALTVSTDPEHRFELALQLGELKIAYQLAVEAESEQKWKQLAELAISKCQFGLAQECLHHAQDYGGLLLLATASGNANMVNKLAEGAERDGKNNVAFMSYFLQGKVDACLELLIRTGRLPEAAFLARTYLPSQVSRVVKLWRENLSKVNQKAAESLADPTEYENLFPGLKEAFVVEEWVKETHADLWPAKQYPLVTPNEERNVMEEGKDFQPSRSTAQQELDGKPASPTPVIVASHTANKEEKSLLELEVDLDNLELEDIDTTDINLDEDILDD
Protocol: as §1, §2, §3, §4

[3] = target: T3, proteins displaced from immobilized biotin-Cmpd 1 pulldowns (U2OS cell lysate) (Homo sapiens, UniProt P38646); details: GN=HSPA9 (P38646)
T3 construct: endogenous in cells; host or cells: U2OS
Protocol: as §1, §2, §3, §4

[4] = target: T4, proteins displaced from immobilized biotin-Cmpd 1 pulldowns (U2OS cell lysate) (Homo sapiens, UniProt P54098); details: GN=POLG (P54098)
T4 construct: endogenous in cells; host or cells: U2OS
T4 sequence (P54098 whole entry): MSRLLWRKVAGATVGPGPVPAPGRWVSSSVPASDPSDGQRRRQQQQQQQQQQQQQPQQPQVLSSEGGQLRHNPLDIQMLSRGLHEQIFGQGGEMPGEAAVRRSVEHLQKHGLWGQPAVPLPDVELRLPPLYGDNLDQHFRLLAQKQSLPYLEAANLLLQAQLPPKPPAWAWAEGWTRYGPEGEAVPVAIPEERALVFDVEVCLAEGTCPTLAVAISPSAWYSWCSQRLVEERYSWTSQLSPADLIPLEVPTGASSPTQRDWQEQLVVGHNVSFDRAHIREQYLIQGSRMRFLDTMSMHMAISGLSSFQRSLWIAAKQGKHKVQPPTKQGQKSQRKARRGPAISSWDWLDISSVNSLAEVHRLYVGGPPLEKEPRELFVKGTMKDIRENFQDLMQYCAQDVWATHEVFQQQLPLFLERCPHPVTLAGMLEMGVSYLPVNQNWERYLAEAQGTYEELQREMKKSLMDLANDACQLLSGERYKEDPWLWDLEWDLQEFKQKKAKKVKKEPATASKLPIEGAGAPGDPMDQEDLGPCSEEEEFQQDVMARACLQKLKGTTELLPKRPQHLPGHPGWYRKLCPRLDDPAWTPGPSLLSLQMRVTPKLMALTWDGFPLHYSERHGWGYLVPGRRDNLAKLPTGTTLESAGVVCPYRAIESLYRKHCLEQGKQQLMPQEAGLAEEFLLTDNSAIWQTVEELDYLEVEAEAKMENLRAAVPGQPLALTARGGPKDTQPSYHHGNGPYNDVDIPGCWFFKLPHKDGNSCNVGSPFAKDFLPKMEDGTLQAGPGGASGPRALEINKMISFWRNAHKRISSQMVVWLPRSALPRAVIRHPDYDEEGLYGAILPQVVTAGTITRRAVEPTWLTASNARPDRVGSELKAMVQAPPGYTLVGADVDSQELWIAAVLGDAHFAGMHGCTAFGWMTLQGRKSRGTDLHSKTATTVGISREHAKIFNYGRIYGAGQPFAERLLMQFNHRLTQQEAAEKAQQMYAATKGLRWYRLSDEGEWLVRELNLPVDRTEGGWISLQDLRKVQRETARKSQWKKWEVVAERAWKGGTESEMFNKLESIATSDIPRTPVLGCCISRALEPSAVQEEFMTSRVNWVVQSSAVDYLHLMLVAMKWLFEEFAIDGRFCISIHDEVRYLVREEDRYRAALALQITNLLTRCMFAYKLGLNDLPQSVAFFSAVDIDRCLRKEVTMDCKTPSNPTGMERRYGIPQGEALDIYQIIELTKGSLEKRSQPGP
Protocol: as §1, §2, §3, §4

[5] = target: T5, proteins displaced from immobilized biotin-Cmpd 1 pulldowns (U2OS cell lysate) (Homo sapiens, UniProt P55072); details: GN=VCP (P55072)
T5 construct: endogenous in cells; host or cells: U2OS
T5 sequence (P55072 whole entry): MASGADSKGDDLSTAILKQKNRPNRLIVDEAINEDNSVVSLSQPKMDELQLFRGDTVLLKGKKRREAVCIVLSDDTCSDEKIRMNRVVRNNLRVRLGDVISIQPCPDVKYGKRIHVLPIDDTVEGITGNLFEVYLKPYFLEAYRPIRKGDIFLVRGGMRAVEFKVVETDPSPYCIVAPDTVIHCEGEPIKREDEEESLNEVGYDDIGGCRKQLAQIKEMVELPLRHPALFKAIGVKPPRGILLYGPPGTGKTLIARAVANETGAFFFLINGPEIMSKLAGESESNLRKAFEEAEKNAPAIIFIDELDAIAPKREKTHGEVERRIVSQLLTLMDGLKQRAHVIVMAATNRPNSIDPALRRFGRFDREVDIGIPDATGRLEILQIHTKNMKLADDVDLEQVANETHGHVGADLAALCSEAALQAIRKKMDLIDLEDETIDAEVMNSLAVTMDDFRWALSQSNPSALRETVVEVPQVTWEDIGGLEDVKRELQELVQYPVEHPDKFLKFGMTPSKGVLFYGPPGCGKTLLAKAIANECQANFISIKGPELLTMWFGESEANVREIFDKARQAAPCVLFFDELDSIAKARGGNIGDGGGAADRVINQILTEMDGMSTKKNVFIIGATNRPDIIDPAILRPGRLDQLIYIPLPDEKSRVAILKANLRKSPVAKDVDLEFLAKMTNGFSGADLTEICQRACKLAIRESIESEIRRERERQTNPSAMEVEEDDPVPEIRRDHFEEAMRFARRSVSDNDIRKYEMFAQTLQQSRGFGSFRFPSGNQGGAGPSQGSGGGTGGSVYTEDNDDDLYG
Protocol: as §1, §2, §3, §4

[6] = target: T6, proteins displaced from immobilized biotin-Cmpd 1 pulldowns (U2OS cell lysate) (Homo sapiens, UniProt Q04837); details: GN=SSBP1 (Q04837)
T6 construct: endogenous in cells; host or cells: U2OS
T6 sequence (Q04837 17-148): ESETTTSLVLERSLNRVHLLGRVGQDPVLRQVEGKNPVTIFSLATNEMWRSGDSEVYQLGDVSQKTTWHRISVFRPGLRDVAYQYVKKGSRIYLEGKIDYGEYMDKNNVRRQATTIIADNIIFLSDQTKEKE
Protocol: as §1, §2, §3, §4

[7] = target: T7, proteins displaced from immobilized biotin-Cmpd 1 pulldowns (U2OS cell lysate) (Homo sapiens, UniProt Q14566); details: GN=MCM6 (Q14566)
T7 construct: endogenous in cells; host or cells: U2OS
T7 sequence (Q14566 whole entry): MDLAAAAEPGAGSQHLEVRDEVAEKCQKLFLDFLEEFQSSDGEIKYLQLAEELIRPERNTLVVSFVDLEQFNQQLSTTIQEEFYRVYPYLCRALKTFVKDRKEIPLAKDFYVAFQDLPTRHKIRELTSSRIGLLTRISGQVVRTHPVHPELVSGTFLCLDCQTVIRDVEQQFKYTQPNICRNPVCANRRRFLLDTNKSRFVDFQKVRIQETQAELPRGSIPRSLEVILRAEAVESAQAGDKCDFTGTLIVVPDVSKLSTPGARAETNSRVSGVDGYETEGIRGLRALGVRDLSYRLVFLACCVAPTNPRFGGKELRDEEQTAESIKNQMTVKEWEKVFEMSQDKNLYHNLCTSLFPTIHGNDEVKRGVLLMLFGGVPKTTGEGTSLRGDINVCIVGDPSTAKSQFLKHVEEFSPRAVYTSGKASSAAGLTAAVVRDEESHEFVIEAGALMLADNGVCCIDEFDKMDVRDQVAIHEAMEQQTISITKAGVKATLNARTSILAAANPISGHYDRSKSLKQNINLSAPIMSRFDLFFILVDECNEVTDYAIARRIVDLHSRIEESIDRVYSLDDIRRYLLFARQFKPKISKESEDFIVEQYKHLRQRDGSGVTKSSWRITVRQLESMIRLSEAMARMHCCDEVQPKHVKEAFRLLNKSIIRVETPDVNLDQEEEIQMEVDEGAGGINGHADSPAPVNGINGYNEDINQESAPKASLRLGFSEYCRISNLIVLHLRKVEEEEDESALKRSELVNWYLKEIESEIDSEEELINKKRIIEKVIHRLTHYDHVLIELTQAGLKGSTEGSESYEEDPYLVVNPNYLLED
Protocol: as §1, §2, §3, §4

[8] = target: T8, proteins displaced from immobilized biotin-Cmpd 1 pulldowns (U2OS cell lysate) (Homo sapiens, UniProt Q8NBJ5); details: GN=COLGALT1 (Q8NBJ5)
T8 construct: endogenous in cells; host or cells: U2OS
Protocol: as §1, §2, §3, §4

[9] = target: T9, proteins displaced from immobilized biotin-Cmpd 1 pulldowns (U2OS cell lysate) (Homo sapiens, UniProt Q96EY1); details: GN=DNAJA3 (Q96EY1)
T9 construct: endogenous in cells; host or cells: U2OS
T9 sequence (Q96EY1 whole entry): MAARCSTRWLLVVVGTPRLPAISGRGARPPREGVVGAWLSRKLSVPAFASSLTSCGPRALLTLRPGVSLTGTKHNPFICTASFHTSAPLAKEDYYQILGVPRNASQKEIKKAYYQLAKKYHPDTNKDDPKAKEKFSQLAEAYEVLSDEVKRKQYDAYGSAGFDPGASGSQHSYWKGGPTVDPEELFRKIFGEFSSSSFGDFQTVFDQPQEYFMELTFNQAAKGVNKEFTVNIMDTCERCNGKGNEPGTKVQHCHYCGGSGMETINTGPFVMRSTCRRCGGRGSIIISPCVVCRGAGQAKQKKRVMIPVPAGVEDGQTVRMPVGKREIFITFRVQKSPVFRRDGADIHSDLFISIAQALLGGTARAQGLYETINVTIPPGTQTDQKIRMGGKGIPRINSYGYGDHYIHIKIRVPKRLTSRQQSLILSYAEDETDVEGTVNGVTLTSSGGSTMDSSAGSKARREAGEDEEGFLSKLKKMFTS
Protocol: as §1, §2, §3, §4

[10] = target: T10, proteins displaced from immobilized biotin-Cmpd 1 pulldowns (U2OS cell lysate) (Homo sapiens, UniProt Q9Y3C1); details: GN=NOP16 (Q9Y3C1)
T10 construct: endogenous in cells; host or cells: U2OS
T10 sequence (Q9Y3C1 whole entry): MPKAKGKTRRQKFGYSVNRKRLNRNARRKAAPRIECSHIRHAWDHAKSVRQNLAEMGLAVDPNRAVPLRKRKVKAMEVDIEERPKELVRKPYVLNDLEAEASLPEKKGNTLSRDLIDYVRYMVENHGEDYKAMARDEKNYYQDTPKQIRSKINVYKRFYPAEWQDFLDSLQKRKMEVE
Protocol: as §1, §2, §3, §4

## Cn1c2c(c(=N)c3c1CCC3)CCC2 [Compound 1, 4-methyl-2,3,4,5,6,7-hexahydrodicyclopenta[b,e]pyridin-8(1H)-imine]
[1]; Cmpd minus DMSO, -LOG(P-value) 0.933319
  Difference: -3.118
[1]; replicates 1-3
  iBAQ Cmpd: 18.4576 and 18.593 and 15.0798
[2]; Cmpd minus DMSO, -LOG(P-value) 1.0232
  Difference: 1.032
[2]; replicates 1-3
  iBAQ Cmpd: 16.3801 and 15.3301 and 15.6123
[3]; Cmpd minus DMSO, -LOG(P-value) 0.718324
  Difference: 0.7463
[3]; replicates 1-3
  iBAQ Cmpd: 19.8777 and 19.6433 and 19.5335
[4]; Cmpd minus DMSO, -LOG(P-value) 0.92162
  Difference: 0.489
[4]; replicates 1-3
  iBAQ Cmpd: 17.0695 and 17.0761 and 17.6776
[5]; Cmpd minus DMSO, -LOG(P-value) 1.20929
  Difference: 2.227
[5]; replicates 1-3
  iBAQ Cmpd: 18.6461 and 18.1931 and 16.8577
[6]; Cmpd minus DMSO, -LOG(P-value) 1.29916
  Difference: 1.094
[6]; replicates 1-3
  iBAQ Cmpd: 21.1032 and 19.9004 and 20.5342
[7]; Cmpd minus DMSO, -LOG(P-value) 0.814851
  Difference: 1.097
[7]; replicates 1-3
  iBAQ Cmpd: 19.4847 and 18.183 and 18.682
[8]; Cmpd minus DMSO, -LOG(P-value) 0.726003
  Difference: 1.872
[8]; replicates 1-3
  iBAQ Cmpd: 17.5569 and 16.2606 and 16.9957
[9]; Cmpd minus DMSO, -LOG(P-value) 0.746444
  Difference: 0.8281
[9]; replicates 1-3
  iBAQ Cmpd: 17.7043 and 17.5809 and 17.383
[10]; Cmpd minus DMSO, -LOG(P-value) 0.713884
  Difference: 3.378
[10]; replicates 1-3
  iBAQ Cmpd: 19.623 and 19.0936 and 18.8692
